Assay results: PMC10035947, “Development of novel anilinoquinazoline-based carboxylic acids as non-classical carbonic anhydrase IX and XII inhibitors” (Journal of Enzyme Inhibition and Medicinal Chemistry, 2023)
Where two headings read alike, the source gives them in different places.

Columns and labels:
hCA I = target: T1, hCA I (Homo sapiens, UniProt P00915); assay: stopped flow CO2 hydrase assay; format: biochemical; conditions: mean from 3 assays
T1 construct: made in house
Protocol: (§1) Carbonic anhydrase inhibition assay
(§2) The carbonic anhydrase catalyzed CO2 hydration actions for the quinazoline-based […]
(§3) Photophysics stopped-flow, as described previously. The enzymes are recombinant proteins prepared in our lab. Phenol red (at a concentration of 0.2 mM) has been used as indicator, working at the absorbance maximum of 557 nm, with 20 mM Hepes (pH 7.5) as buffer, and 20 mM Na2SO4 (for maintaining constant the ionic strength), following the initial rates of the CA- […]
(§4) 1.7 to 17 mM for the determination of the kinetic parameters and inhibition constants. For each […]
(§5) initial velocity. The uncatalyzed rates were determined in the same manner and subtracted from the total observed rates. Stock solutions of inhibitor (0.1 mM) were prepared in distilled-deionized water and dilutions up to 0.01 nM were done thereafter with the assay buffer. Inhibitor and enzyme solutions were preincubated together for 15 min at room temperature prior to assay, in order to allow for the formation of the E-I complex. The inhibition constants were obtained by non-linear least-squares methods using PRISM 3 and the Cheng-Prusoff equation, and represent the mean from at least three different determinations.

hCA IX [1] = target: T2, hCA IX (Homo sapiens, UniProt Q16790); assay: stopped flow CO2 hydrase assay; format: biochemical; conditions: for Selectivity ratio II/IX: KI hCA II / KI hCA IX; for Ki: mean from 3 assays
T2 construct: made in house
Protocol: as §1, §2, §3, §4, §5

hCA XII [2] = target: T3, hCA XII (Homo sapiens, UniProt O43570); assay: stopped flow CO2 hydrase assay; format: biochemical; conditions: for Selectivity ratio I/XII: KI hCA I / KI hCA XII; for Selectivity ratio II/XII: KI hCA II / KI hCA XII; for Ki: mean from 3 assays
T3 construct: made in house
T3 sequence (O43570 25-354): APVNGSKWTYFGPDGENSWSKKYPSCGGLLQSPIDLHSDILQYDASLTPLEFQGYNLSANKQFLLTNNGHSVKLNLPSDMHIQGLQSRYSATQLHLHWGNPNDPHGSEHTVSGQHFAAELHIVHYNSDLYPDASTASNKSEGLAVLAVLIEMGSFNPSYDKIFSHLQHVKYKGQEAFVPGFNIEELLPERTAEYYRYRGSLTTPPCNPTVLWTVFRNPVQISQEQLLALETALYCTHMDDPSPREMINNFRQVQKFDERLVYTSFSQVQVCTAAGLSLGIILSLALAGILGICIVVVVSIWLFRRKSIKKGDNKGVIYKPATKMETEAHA
Protocol: as §1, §2, §3, §4, §5

hCA II = target: T4, hCA II (Homo sapiens, UniProt P00918); assay: stopped flow CO2 hydrase assay; format: biochemical; conditions: mean from 3 assays
T4 construct: made in house
Protocol: as §1
as §3, with “The carbonic anhydrase catalyzed CO2 hydration actions for the quinazoline-based carboxylic acid derivatives (6a-c, 7a-c and 8a-c) were assayed utilizing an instrument of Applied Photophysics” for “Photophysics”
as §5, with “1.7 to 17 mM for the determination of the kinetic parameters and inhibition constants. For each inhibitor at least six traces of the initial 5-10% of the reaction have been used for determining the initial” for “initial”

hCA IX [3] = target: T2, hCA IX; conditions: cited from earlier work
hCA XII [4] = target: T3, hCA XII; conditions: cited from earlier work

T1 sequence (P00915 whole entry): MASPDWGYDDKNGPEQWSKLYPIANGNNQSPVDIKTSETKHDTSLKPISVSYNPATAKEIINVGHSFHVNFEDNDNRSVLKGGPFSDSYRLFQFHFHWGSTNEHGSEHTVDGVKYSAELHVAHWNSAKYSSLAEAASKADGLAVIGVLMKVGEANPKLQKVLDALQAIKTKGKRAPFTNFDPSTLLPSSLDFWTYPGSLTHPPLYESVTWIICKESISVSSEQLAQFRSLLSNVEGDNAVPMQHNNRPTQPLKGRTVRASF

Ki (hCA I) [µM] | Selectivity ratio I/IX (hCA IX [1]; KI hCA I / KI hCA IX) | Selectivity ratio II/IX (hCA IX [1]) | Ki (hCA IX [1]) [µM] | Selectivity ratio I/XII (hCA XII [2]) | Selectivity ratio II/XII (hCA XII [2]) | Ki (hCA XII [2]) [µM] | Ki (hCA II) [µM] | melting point [°C] | SMILES | Ki (hCA IX [3]) [µM] | Ki (hCA XII [4]) [µM]
66.3 | 14.7 | 1.02 | 4.5 | 265.2 | 18.40 | 0.25 | 4.6 | > 300 | COc1ccc(-c2nc(Nc3ccc(C(=O)O)cc3)c3ccccc3n2)cc1 [8c, 4-((2–(4-Methoxyphenyl)quinazolin-4-yl)amino)benzoic acid] | – | –
– | – | – | – | – | – | – | – | – | Cc1c(NC(=O)Nc2cccc(C(=O)O)c2)oc2ccccc12 [I] | 0.79 | 2.3
> 100 | – | 2.72 | 31.6 | – | 178.75 | 0.48 | 85.8 | 244 to 246 | COc1ccc(-c2nc(Nc3cccc(C(=O)O)c3)c3ccccc3n2)cc1 [7c, 3-((2–(4-Methoxyphenyl)quinazolin-4-yl)amino)benzoic acid] | – | –
> 100 | – | 0.89 | 29.3 | 20.8 | 5.42 | 4.8 | 26 | – | Cc1cccc(-c2nc(Nc3cccc(C(=O)O)c3)c3ccccc3n2)c1 [7a, 3-((2-(m-Tolyl)quinazolin-4-yl)amino)benzoic acid] | – | –
– | – | – | – | – | – | – | – | – | O=C(O)c1ccc(N/C=C/C(=O)c2ccc(F)cc2)cc1 [III] | 0.92 | 1.1
